According to BindingDB's records for doi:10.1021/jm00063a004 (Cnrs-Cercoa, 1993):

Target: Trypsin (Sus scrofa) (UniProt P00761)
Assay: Apparent binding constant against porcine trypsin

Sequence of Trypsin (Sus scrofa) (P00761 whole entry, looked up): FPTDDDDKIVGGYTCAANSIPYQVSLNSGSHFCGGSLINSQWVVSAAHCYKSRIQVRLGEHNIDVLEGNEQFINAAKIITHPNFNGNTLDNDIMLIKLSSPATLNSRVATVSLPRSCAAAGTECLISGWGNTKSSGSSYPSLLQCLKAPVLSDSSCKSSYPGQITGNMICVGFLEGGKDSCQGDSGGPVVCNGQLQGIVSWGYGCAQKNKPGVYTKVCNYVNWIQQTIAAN

`N=C(N)NCCCC1NC(=O)CNC(=O)c2cc(ccc2CBr)NC1=O` (stereo unspecified) [N-[3-(11-Bromomethyl-3,6,9-trioxo-2,5,8-triaza-bicyclo[8.3.1]tetradeca-1(13),10(14),11-trien-4-yl)-propyl]-guanidine] showed a Ki of 20 µM.
